Measured values from paper PMC10859961, “Ir(III) Half-Sandwich Photosensitizers with a π-Expansive Ligand for Efficient Anticancer Photodynamic Therapy” (Journal of Medicinal Chemistry, 2024).
Where two headings read alike, the source gives them in different places.

Tests used:
[1] = Photocatalytic NADH oxidation (UV-vis); type: biochemical; parameters: key: TON = ΔNADH concentration after 1 h / photocatalyst concentration; details: first hour, complex 2.5 μM, NADH 100 μM
Procedure: Fresh stock solutions of the complexes at 7.50 μM in H2O/MeOH mixture (97.5/2.5, v/v) and NADH at 300 μM in H2O/MeOH mixture (97.5/2.5, v/v) were prepared. In a quartz cell, 1 mL of complex solution, 1 mL of NADH solution, and 1 mL of solvent mixture were mixed to prepare a final solution with 2.50 μM complex and 100 μM NADH (complex/NADH rate = 1/40). The solutions were studied by recording UV–vis absorption spectra in dark conditions and under blue light irradiation (λexc = 470 nm, “Medusa” photoreactor) at ambient temperature and various time intervals for 8 h. In addition, a solution of NADH at 100 μM was studied under blue light irradiation to confirm its photostability. The photocatalytic rate of the photosensitizers was evaluated by monitoring its absorbance decrease at 340 nm, which correspond to NADH oxidation.
The turnover numbers (TONs) of complexes were calculated by measuring the absorption difference at 340 nm after 1 h of reaction. TON was calculated from the difference in NADH concentration after 1 h divided by the concentration of photocatalyst (eq 5), where b is the optical path length (1 cm). The concentration of NADH was obtained using the extinction coefficient ε340 = 5751 M^–1 cm^–1.[40],[148] [drawing 26] 5

[2] = test system: A549 cancer cells; test: MTT cell viability assay, dark or photoactivated; type: cell-based, human; details: A549; for IC50: 4 h incubation; for IC50 / PI green light (IC50,dark/IC50,light) / PI red light (IC50,dark/IC50,light) / PI blue light (IC50,dark/IC50,light): MTT; for PI green light (IC50,dark/IC50,light): green light 530 nm; for PI green light (IC50,dark/IC50,light) / PI red light (IC50,dark/IC50,light) / PI blue light (IC50,dark/IC50,light): 24.1 J cm^–2; for PI/Dose: dose 24.1 J cm‐2, PI from MTT; for PI red light (IC50,dark/IC50,light): red light 655 nm; for PI blue light (IC50,dark/IC50,light): blue light 460 nm
Procedure: Cells were cultured in 96-well plates at a density of 3000 (A549), 2500 (HeLa), or 5000 (PC-3, 1BR.3.G, and MRC-5) cells per well in cell culture medium and allowed to attach for 24 h. Solutions of the complexes at different concentrations were prepared for cell treatments. In all cases, the solid compounds were weighed using an analytical balance (Mettler Toledo AX205DR) to ensure precise measurements. Subsequently, 5 mM solutions were prepared using DMSO. Solutions were then diluted in water to reach a concentration of 1 mM and then, aliquots were taken and diluted in culture medium to obtain solutions ranging from 0 to 50 μM. […] The cells were treated with these solutions in dark conditions or following the photoactivation protocol (see below). 48 h later the treatments were removed, and cells were washed with phosphate-buffered saline (PBS).
Initially, the effect of the complexes on the cell viability was determined by the 3-(4,5-dimethylthiazol-2-yl)-2,5-diphenyltetrazolium bromide (MTT) assay.[147] The cells were incubated for 2 h with 100 μL of culture medium together with 10 μL of MTT (Sigma-Aldrich) at 0.5 mg/mL. After discarding the medium, DMSO was added to each well to dissolve the purple formazan crystals. The absorbance of each well was determined on a Multiscan Plate Reader (Synergy 4, Biotek, Winooski) at a wavelength of 570 nm. Cell viability was also assessed using the CyQUANT Direct Cell Proliferation Assay (Thermo Fisher Scientific), following the manufacturer’s instructions. Briefly, after the treatments, the cells were washed with PBS, and an equal volume of culture medium and CyQUANT mix was added to each well. The plates were then incubated for 1 h at 37 °C. Subsequently, the fluorescence intensity was bottom read using a Multiscan Plate Reader (Synergy 4, Biotek, Winooski) with excitation and emission filters of 485 and 528 nm, respectively. In both assays, at least three replicates were measured for each treatment. The concentration that reduces the cell viability by 50% (IC50) was established using the Gen5 software (BioTek). Three independent experiments were carried out for each compound. […] The phototoxicity index (PI = IC50,dark/IC50,light) was determined.
To assess the photodynamic activity of the complexes, cells were incubated with the complexes for 4 h to enable their intracellular accumulation. The cells were then irradiated with light with a wavelength of 460 nm (blue), 530 nm (green), or 655 nm (red) for 1 h using a LED system (LuxLight) with an effective power of 6.7 mW cm^–2, which provides a total light dose of 24.1 J cm^–2. The LED system was positioned at 25 mm from the cell culture plates.

[3] = test system: calf thymus DNA (CT-DNA); test: Competitive EtBr displacement assay; type: binding; details: CT-DNA saturated with EtBr; 1 h, room temperature; read-out: C50 (50% reduction of EtBr fluorescence)
Procedure: To investigate the capacity of the complexes to intercalate into DNA, the competitive ethidium displacement assay was carried out as previously described[149] with minor modifications. Stock solutions of 20 μM calf thymus DNA (CT-DNA) and 25 μM Ethidium bromide (EtBr) were prepared in saline TE (50 mM NaCl, 10 mM tris(hydroxymethyl) aminomethane–HCl, 0.1 mM ethylenediaminetetracetic acid (EDTA), pH 7.4). Serial dilutions of metal complexes were prepared at concentrations ranging from 20 to 400 μM from a 1 mM stock solution containing 20% DMSO. The assay was carried out by mixing 25 μL of CT-DNA and 25 μL of EtBr with 50 μL of each compound dilution, on a black 96-well plate. The plate was incubated at room temperature for 1 h and the fluorescence was measured on a Synergy 4 microplate reader (Biotek, Winooski), with excitation wavelength set to 500 nm, and emission wavelength set to 530–800 nm. The fluorescence emission at 590 nm was used to measure the C50, corresponding to the concentration of compound required to induce a 50% decrease in the fluorescence of the EtBr. Experiments were performed in triplicate.

[4] = blue light 460 nm 1 h (24.1 J cm^–2), 48 h, read-out: IC50 blue light
[5] = green light 530 nm 1 h (24.1 J cm^–2), 48 h, read-out: IC50 green light
[6] = kept in the dark, viability after 48 h, read-out: IC50 dark
[7] = red light 655 nm 1 h (24.1 J cm^–2), 48 h, read-out: IC50 red light

## Cc1c(C)c(C)[c-](C)c1C.[Cl][Ir]1[c]2cccc3c4nc5ccccc5nc4c4ccc[n+]1c4c23 [complex 1, [(η^5-C5Me5)IrCl(pbpz)]]
[1]; 470 nm blue light
  TON1h (NADH oxidation): 12.47
[1]; dark
  TON1h (NADH oxidation): 0.16
[2]; [4]
  IC50: 2900 ± 400 nM
[2]; [5]
  IC50: 5800 ± 100 nM
[2]; [6]
  IC50: 8000 ± 1000 nM
[2]
  PI green light (IC50,dark/IC50,light): 1.4
[3]
  IC50: 192000 nM

## Cc1c(C)c(C)[c-](C)c1C.F[B-](F)(F)F.c1ccc2cc3nc4c5ccc[n+]6c5c5[c](cccc5c4nc3cc2c1)[Ir]6[n+]1cc[nH]c1 [complex 4, [(η^5-C5Me5)Ir(Im)(pbpn)]BF4]
[1]; 470 nm blue light
  TON1h (NADH oxidation): 9.71
[1]; dark
  TON1h (NADH oxidation): 0.31
[2]; 530 nm
  PI/Dose: 12.2
[2]; [4]
  IC50: 3.2 ± 2 nM
[2]; [5]
  IC50: 10 ± 3 nM
[2]; [6]
  IC50: 2900 ± 1000 nM
[2]; [7]
  IC50: 120 ± 50 nM
[2]
  PI green light (IC50,dark/IC50,light): 294
  PI red light (IC50,dark/IC50,light): 25
[3]
  IC50: 15900 nM

## Cc1c(C)c(C)[c-](C)c1C.F[B-](F)(F)F.c1ccc2nc3c4ccc[n+]5c4c4[c](cccc4c3nc2c1)[Ir]5[n+]1ccn(CCN2CCCCC2)c1 [complex 5, [(η^5-C5Me5)Ir(Imepip)(pbpz)]BF4]
[1]; 470 nm blue light
  TON1h (NADH oxidation): 2.36
[1]; dark
  TON1h (NADH oxidation): 0.37
[2]; [4]
  IC50: 390 ± 100 nM
[2]; [5]
  IC50: 520 ± 20 nM
[2]; [6]
  IC50: 830 ± 20 nM
[2]
  PI blue light (IC50,dark/IC50,light): 2.1
  PI green light (IC50,dark/IC50,light): 1.6
[3]
  IC50: 54600 nM

## Cc1c(C)c(C)[c-](C)c1C.F[B-](F)(F)F.c1ccc2cc3nc4c5ccc[n+]6c5c5[c](cccc5c4nc3cc2c1)[Ir]6[n+]1ccn(CCN2CCCCC2)c1 [complex 6, [(η^5-C5Me5) Ir(Imepip)(pbpn)]BF4]
[1]; 470 nm blue light
  TON1h (NADH oxidation): 7.79
[1]; dark
  TON1h (NADH oxidation): 0.94
[2]; 460 nm
  PI/Dose: 54.6
[2]; 655 nm
  PI/Dose: 2.6
[2]; [4]
  IC50: 1.5 ± 0.5 nM
[2]; [5]
  IC50: 11 ± 4 nM
[2]; [6]
  IC50: 2000 ± 100 nM
[2]; [7]
  IC50: 32 ± 10 nM
[2]
  PI green light (IC50,dark/IC50,light): 179
  PI red light (IC50,dark/IC50,light): 63
[3]
  IC50: 32800 nM

## Cc1c(C)c(C)[c-](C)c1C.F[B-](F)(F)F.c1ccc(Cn2cc[n+]([Ir]3[c]4cccc5c6nc7ccccc7nc6c6ccc[n+]3c6c45)c2)cc1 [complex 7, [(η^5-C5Me5)Ir(bzIm)(pbpz)]BF4]
[1]; 470 nm blue light
  TON1h (NADH oxidation): 4.54
[1]; dark
  TON1h (NADH oxidation): 0.12
[2]; [4]
  IC50: 650 ± 200 nM
[2]; [5]
  IC50: 470 ± 40 nM
[2]; [6]
  IC50: 770 ± 200 nM
[2]
  PI blue light (IC50,dark/IC50,light): 1.2
  PI green light (IC50,dark/IC50,light): 1.7
[3]
  IC50: 95400 nM

## Cc1c(C)c(C)[c-](C)c1C.F[B-](F)(F)F.c1ccc(Cn2cc[n+]([Ir]3[c]4cccc5c6nc7cc8ccccc8cc7nc6c6ccc[n+]3c6c45)c2)cc1 [complex 8, [(η^5-C5Me5)Ir(bzIm)(pbpn)]BF4]
[1]; 470 nm blue light
  TON1h (NADH oxidation): 5.75
[1]; dark
  TON1h (NADH oxidation): 0.14
[2]; [4]
  IC50: 0.2 ± 0.1 nM
[2]; [5]
  IC50: 2.1 ± 0.4 nM
[2]; [6]
  IC50: 150 ± 50 nM
[2]; [7]
  IC50: 30 ± 20 nM
[2]
  PI green light (IC50,dark/IC50,light): 71
  PI red light (IC50,dark/IC50,light): 5
[3]
  IC50: 15900 nM
